According to patent US7538122B2, “Heterocyclic antiviral compounds” (Roche Palo Alto LLC, priority 2004, dated 2009):
pIC50: −log10 of the molar value. Like-named read-outs stand apart in the source and are kept apart here.

What was measured:
Human CCR5 receptor = target: T1, Human CCR5 receptor (Homo sapiens, UniProt P51681); assay: Human CCR5 receptor-ligand binding assay (125I chemokine displacement on CHO-Gα16-hCCR5 cells); settings: RT 2 h
T1 construct: expressed in transfected cells
Text: Human CCR5 Receptor-Ligand Binding Assay Protocol
Human CCR5 receptor (Genebank ID: 29169292) was cloned into mammalian expression vector, pTarget (Promega). The construct was transfected into CHO-Gα16 cells by using Fugene Reagent (Roche). Clones were selected under antibiotic pressure (G418 and Hygromycin) and sorted 4 times with a fluorescence activates cell sorter and a monoclonal antibody specific for CCR5 receptor (BD Biosciences Pharmigen, Mab 2D7, Cat. No. 555993). The clone with highest expression (100,000 copies per cell) was chosen for the binding assays.
Adherent cells in […] tissue culture flask (˜90% confluent) were harvested using 1 mM EDTA in PBS (phosphate-buffered saline) without Ca^2+ and Mg^2+. Cells were washed twice with PBS containing no Ca^2+ and Mg^2+. CHO-Gα16-hCCR5 cells were then resuspended (1×10^6/ml) in ice cold binding buffer (50 mM HEPES, 1 mM CaCl2, 5 mM MgCl2, 0.5% BSA, 0.05% NaN3, pH 7.24), pH 7.4), supplemented with freshly made 0.5% BSA and 0.05% NaN3.
Eighty μl CHO-Gα16-hCCR5 (1×10^6/ml) cells were added to 96 well plates. All dilutions were made in binding buffer (50 mM HEPES, 1 mM CaCl2, 5 mM MgCl2, 0.5% BSA, 0.05% NaN3, pH 7.24).
The plates were incubated on a cell shaker at RT for 2 h with a final concentration of 0.1 nM ^125I RANTES or ^125I MIP-1α or ^125I MIP-1β. The compound dilutions were made in PBS, 1% BSA. Total reaction volume was 100 μl per well. The test compounds were added to the cells prior to the addition of radioligand.
After incubation, the cells were harvested onto GF/C filter plates using Packard cell harvester. Filters were pretreated with 0.3% PEI/0.2% BSA for 30 min. The filter plate was washed rapidly 5 times with 25 mM HEPES, 500 mM NaCl, 1 mM CaCl2 and 5 mM MgCl2 adjusted to pH 7.1. Plates were dried in oven (70° C.) for 20 min, added with 40 μl scintillation fluid and sealed with Packard TopSeal-A. Packard Top Count was used to measure of the radioactivity for 1 min per well.
Total binding was determined with control wells added with radioisotope and buffer and the non-specific binding was determined using an excess cold RANTES to some of the control wells. Specific binding was determined by subtracting the non-specific form total binding. Results are expressed as the percentage of specific ^125I RANTES binding. IC50 values were determined using varying concentrations of the test ligand in triplicates and the data was analyzed using GraphPad Prism (GraphPad, San Diego, Calif.).

[1] = 0.1 nM 125I RANTES, read-out: Binding IC50 RANTES
[2] = 0.1 nM 125I MIP-1β, read-out: Binding IC50 Mip-1b
[3] = 0.1 nM 125I MIP-1α, read-out: Binding IC50 Mip-1a

T1 sequence (P51681 whole entry): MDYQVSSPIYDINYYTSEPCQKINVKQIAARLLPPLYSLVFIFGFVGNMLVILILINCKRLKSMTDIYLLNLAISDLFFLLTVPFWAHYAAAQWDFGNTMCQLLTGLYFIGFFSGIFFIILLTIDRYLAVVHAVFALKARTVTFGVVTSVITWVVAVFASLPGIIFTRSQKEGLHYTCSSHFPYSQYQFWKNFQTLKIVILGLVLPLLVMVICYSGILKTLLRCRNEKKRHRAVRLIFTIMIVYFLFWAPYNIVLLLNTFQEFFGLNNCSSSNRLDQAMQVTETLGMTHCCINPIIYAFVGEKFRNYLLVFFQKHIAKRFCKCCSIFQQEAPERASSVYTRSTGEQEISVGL

pIC50 (Human CCR5 receptor; [1]) | pIC50 (Human CCR5 receptor; [2]) | pIC50 (Human CCR5 receptor; [3]) | melting point [°C] | Compound
8.09 | – | – | – | CCCCC1N(CC2CCCCC2)C(=O)OC12CCN(C1(C)CCN(C(=O)c3c(C)nn(Cc4ccccc4)c3C)CC1)CC2 (stereo not shown) [Compound I-214, 8-[1-(1-Benzyl-3,5-dimethyl-1H-pyrazole-4-carbonyl)-4-methyl-piperidin-4-yl]-4-butyl-3-cyclohexylmethyl-1-oxa-3,8-diaza-spiro[4.5]decan-2-one; compound with trifluoro-acetic acid]
7.85 | 7.89 | 7.74 | – | CCCCC1N(CC2CCCCC2)C(=O)OC12CCN(C1CCN(C(=O)c3c(C)cccc3C)CC1)CC2 (stereo not shown) [Compound I-1, 4-Butyl-3-cyclohexylmethyl-8-[1-(2,6-dimethyl-benzoyl)-piperidin-4-yl]-1-oxa-3,8-diaza-spiro[4.5]decan-2-one]
8.14 | – | – | – | CCCCC1N(CC2CCCCC2)C(=O)OC12CCN(C1(C)CCN(C(=O)c3c(C)ncnc3C)CC1)CC2 (stereo not shown) [Compound I-212, 4-Butyl-3-cyclohexylmethyl-8-[1-(4,6-dimethyl-pyrimidine-5-carbonyl)-4-methyl-piperidin-4-yl]-1-oxa-3,8-diaza-spiro[4.5]decan-2-one; compound with trifluoro-acetic acid]
8.11 | > 8.82 | – | – | CCCCC1CN(CC2CCOCC2)C(=O)OC12CCN(C1(C)CCN(C(=O)c3c(C)ncnc3C)CC1)CC2 (stereo not shown) [Compound I-415, 5-Butyl-9-[1-(4,6-dimethyl-pyrimidine-5-carbonyl)-4-methyl-piperidin-4-yl]-3-(tetrahydro-pyran-4-ylmethyl)-1-oxa-3,9-diaza-spiro[5.5]undecan-2-one; compound with trifluoro-acetic acid]
– | – | – | 246.9 to 248 | CCCCN1C(=O)C([C@@H](O)C2CCCCC2)NC(=O)C12CCN(C1CCN(C(=O)c3c(C)cccc3C)CC1)CC2 (stereo partly drawn) [Compound I-76, 1-Butyl-3-((S)-cyclohexyl-hydroxy-methyl)-9-[1-(2,6-dimethyl-benzoyl)-piperidin-4-yl]-1,4,9-triaza-spiro[5.5]undecane-2,5-dione]
8.29 | 7.98 | 8.35 | – | CCCC[C@@H]1N(CC2CCCCC2)C(=O)OC12CCN(C1CCN(C(=O)c3c(C)cccc3C)CC1)CC2 [Compound I-159, (S)-4-Butyl-3-cyclohexylmethyl-8-[1-(2,6-dimethyl-benzoyl)-piperidin-4-yl]-1-oxa-3,8-diaza-spiro[4.5]decan-2-one]

Compound | pIC50 (Human CCR5 receptor; [1]) | pIC50 (Human CCR5 receptor; [2]) | pIC50 (Human CCR5 receptor; [3]) | melting point [°C]
4-Butyl-8-[1-(2,6-dimethyl-benzoyl)-piperidin-4-yl]-3-(2-methyl-butyl)-1-oxa-3,8-diaza-spiro[4.5]decan-2-one; compound with trifluoro-acetic acid [Compound I-90] | 8.29 | 8.74 | – | –
